{"source": "ChEMBL document CHEMBL1201862", "about": "“PubChem BioAssay data set” (2004)", "key": {"[1]": {"assay": "inhibitors of firefly luciferase expression or activity, dose response, H4 neuroglioma cells, luminescence (AID 1990)", "assay_type": "functional, cell-based"}, "[2]": {"assay": "Luminescence Cell-Based Dose Response HTS to Identify Inhibitors of 5'UTR Stem-Loop Driven Prion Protein mRNA Translation in H4 Neuroglioblastoma Cells. [Related pubchem assays: 1827 (Project Summary), 1813 (Primary HTS)]", "assay_type": "functional"}, "[3]": {"assay": "inhibitors of SNCA 5'UTR-driven reporter translation, confirmation, H4 neuroglioma cells, luminescence (AID 1988)", "assay_type": "functional, cell-based"}, "HEK293": {"system": "HEK293", "assay": "inhibitors of LMP1-driven NF-kB reporter, dose response, cell-based, HEK293, luciferase, cherry-pick (AID 588343)", "assay_type": "functional", "conditions": "Homo sapiens"}, "[4]": {"biological_target": "Mitogen-activated protein kinase 10 (Homo sapiens, UniProt P53779)", "sequence (P53779 whole entry)": "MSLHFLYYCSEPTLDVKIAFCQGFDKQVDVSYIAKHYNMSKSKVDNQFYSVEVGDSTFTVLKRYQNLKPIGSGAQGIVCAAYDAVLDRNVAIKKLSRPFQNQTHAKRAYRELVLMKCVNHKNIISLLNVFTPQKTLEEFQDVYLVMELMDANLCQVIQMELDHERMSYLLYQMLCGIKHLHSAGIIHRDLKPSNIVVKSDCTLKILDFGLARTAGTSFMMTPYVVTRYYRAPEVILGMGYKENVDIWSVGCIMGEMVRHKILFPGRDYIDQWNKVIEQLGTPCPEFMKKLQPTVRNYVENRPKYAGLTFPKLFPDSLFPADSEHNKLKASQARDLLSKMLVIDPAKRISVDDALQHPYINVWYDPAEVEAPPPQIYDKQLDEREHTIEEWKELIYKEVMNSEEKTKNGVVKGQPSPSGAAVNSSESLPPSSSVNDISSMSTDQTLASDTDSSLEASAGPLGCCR", "assay": "Dose response biochemical screening assay for inhibitors of c-Jun N-Terminal Kinase 3 (JNK3). [Related pubchem assays: 746 ]"}, "[5]": {"biological_target": "Luciferin 4-monooxygenase (Photinus pyralis, UniProt P08659)", "sequence (P08659 whole entry)": "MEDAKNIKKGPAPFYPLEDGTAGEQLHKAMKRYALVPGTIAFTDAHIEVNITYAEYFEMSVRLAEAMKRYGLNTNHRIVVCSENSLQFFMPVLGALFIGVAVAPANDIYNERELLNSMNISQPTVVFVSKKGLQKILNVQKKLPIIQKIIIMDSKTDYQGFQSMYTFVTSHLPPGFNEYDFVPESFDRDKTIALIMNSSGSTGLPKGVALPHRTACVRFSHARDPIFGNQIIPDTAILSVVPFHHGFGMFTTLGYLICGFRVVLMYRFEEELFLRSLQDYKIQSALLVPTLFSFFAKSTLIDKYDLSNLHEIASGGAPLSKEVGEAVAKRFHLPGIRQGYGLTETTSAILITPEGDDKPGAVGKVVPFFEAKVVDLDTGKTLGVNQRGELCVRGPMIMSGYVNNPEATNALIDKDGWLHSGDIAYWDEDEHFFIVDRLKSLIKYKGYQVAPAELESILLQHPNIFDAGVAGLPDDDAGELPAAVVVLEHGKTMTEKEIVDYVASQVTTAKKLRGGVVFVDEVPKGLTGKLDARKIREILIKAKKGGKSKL", "assay": "firefly luciferase enzyme inhibitors, dose response, biochemical, luminescence (AID 1891)"}, "[6]": {"assay": "Luminescence Cell-Based Dose Confirmation HTS to Identify Inhibitors of Platelet Dense Granule Release. [Related pubchem assays: 1663 (Primary HTS), 1678 (Summary of Project)]", "assay_type": "functional"}, "[7]": {"biological_target": "Nuclear receptor subfamily 5 group A member 2 (Homo sapiens, UniProt O00482)", "sequence (O00482 whole entry)": "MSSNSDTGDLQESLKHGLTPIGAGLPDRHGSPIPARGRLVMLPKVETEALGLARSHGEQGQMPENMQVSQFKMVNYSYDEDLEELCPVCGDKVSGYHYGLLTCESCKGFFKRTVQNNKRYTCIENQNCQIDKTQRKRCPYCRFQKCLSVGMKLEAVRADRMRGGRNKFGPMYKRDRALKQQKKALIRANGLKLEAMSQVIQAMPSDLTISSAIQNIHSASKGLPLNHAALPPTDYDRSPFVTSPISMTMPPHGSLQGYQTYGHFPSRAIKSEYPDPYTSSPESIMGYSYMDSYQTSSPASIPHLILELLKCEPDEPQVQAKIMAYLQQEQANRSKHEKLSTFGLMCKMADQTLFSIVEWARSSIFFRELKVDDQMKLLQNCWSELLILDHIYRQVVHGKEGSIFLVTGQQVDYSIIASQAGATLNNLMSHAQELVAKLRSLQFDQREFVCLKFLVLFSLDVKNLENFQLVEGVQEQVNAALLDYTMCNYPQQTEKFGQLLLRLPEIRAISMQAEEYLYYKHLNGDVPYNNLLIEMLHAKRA", "assay_type": "functional, cell-based"}, "Steroidogenic factor 1": {"biological_target": "Steroidogenic factor 1 (Homo sapiens, UniProt Q13285)", "sequence (Q13285 whole entry)": "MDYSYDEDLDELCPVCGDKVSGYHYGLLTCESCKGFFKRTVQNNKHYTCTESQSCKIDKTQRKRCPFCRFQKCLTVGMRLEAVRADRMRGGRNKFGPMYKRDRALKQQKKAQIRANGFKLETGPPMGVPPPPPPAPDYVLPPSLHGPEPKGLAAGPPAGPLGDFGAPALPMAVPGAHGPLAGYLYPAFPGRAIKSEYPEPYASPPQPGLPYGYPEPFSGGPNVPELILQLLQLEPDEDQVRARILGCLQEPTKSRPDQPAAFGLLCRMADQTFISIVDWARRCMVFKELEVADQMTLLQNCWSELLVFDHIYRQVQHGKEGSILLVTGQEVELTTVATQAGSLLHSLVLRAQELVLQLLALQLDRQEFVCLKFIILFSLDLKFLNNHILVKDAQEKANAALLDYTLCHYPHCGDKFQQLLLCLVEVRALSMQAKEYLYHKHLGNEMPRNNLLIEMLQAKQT", "assay": "Counterscreen for inverse agonists of the liver receptor homolog-1 (LRH-1; NR5A2): Luminescence-based cell-based high throughput dose response assay to identify inverse agonists of the Steroidogenic Factor 1 Nuclear Receptor (SF1; NR5A1).", "assay_type": "functional"}, "[8]": {"assay": "StAR promoter reporter inhibition counter-screen, dose response, counter-screen for LRH-1 inverse agonist project, cell-based, luminescence, luciferase reporter (AID 651969)", "assay_type": "functional"}, "[9]": {"assay": "intracellular Trypanosoma cruzi inhibitors in host cells – cell-based, plate reader, cherry-pick samples, set 3, dose response (AID 651818);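 further: compounds incubated with infected cells for about four days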", "assay_type": "functional"}, "[10]": {"biological_target": "T1, DNA repair protein RAD52 homolog (Homo sapiens, UniProt P43351)", "T1 sequence (P43351 whole entry)": "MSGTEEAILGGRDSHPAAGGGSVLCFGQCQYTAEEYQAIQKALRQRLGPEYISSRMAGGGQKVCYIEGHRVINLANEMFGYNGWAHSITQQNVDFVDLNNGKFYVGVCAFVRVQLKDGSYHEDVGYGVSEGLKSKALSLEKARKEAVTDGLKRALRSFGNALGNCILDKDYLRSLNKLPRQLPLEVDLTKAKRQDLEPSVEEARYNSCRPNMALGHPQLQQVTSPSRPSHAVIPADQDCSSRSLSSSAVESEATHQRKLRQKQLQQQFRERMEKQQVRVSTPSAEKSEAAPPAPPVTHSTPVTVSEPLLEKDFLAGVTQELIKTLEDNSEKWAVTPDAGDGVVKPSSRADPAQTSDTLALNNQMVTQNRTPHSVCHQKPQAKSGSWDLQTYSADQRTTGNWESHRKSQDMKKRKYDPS", "assay_type": "functional, biochemical"}, "[11]": {"biological_target": "T2, Endoribonuclease toxin MazF (Escherichia coli K-12, UniProt P0AE70)", "T2 sequence (P0AE70 whole entry)": "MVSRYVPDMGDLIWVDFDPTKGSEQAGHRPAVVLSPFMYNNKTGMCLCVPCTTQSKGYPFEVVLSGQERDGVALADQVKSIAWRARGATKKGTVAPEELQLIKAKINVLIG", "assay": "MazF toxin RNase activators, dose response, biochemical, fluorescence, single-stranded RNA substrate, uHTS hits (AID 588481)", "assay_type": "functional"}, "[12]": {"biological_target": "T2, Endoribonuclease toxin MazF", "assay": "fluorescent RNA oligo signal without MazF, dose response, counter-screen for MazEF activator project, biochemical, fluorescence, single-stranded RNase substrate (AID 588502)", "assay_type": "functional"}, "[13]": {"biological_target": "T3, Heat shock factor protein 1 (Mus musculus, UniProt P38532)", "T3 sequence (P38532 whole entry)": "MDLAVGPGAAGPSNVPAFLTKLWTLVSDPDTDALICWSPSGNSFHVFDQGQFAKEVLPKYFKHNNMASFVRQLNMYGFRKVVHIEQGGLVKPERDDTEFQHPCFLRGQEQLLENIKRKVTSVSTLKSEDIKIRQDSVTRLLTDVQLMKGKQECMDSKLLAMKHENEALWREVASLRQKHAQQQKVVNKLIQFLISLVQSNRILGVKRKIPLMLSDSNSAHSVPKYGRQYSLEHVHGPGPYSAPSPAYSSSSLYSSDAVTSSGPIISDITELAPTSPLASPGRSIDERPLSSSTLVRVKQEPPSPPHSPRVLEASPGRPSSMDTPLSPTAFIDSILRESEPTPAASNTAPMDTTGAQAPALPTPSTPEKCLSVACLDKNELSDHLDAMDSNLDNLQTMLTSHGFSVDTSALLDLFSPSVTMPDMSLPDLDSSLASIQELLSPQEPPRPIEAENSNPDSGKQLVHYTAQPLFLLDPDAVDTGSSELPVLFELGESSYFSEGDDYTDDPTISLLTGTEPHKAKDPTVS", "assay": "inhibition of MG132-induced HSE-luciferase signal, confirmation, cell-based, NIH3T3, luminescence, dose retest (AID 2382);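 further: NIH3T3 fibroblasts with HSF1-driven luciferase reporter stressed by proteasome inhibitor MG132; luminescence from HSF1-driven luciferase expression after 8 hours of MG132 stress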", "assay_type": "functional"}, "H9c2": {"system": "H9c2", "assay": "cells", "assay_type": "functional, cell-based", "conditions": "Rattus norvegicus, H9c2, Myocardium"}}, "note": "Activity calls are given as the source filed them.", "data": [{"compound": "COCCn1c(C)cc(C(=O)COC(=O)c2[nH]nc3ccccc23)c1C", "values": [{"measurement": "EC50", "setting": "[1]", "result": "4.23 µM (inconclusive)"}, {"measurement": "EC50", "setting": "[2]", "result": "4.02 µM (active)"}, {"measurement": "EC50", "setting": "[3]", "result": "1.58 µM (active)"}, {"measurement": "AC50", "setting": "HEK293", "result": "2.08 µM (active)"}]}, {"compound": "COc1ccc(C(=O)NCc2cn3c(C)csc3n2)cc1OC", "values": [{"measurement": "IC50", "setting": "[4]", "result": "> 31 µM (not active)"}]}, {"compound": "CC(=O)c1cccc(NC(=O)Nc2ccc(C(=O)N3CCOCC3)cc2)c1", "values": [{"measurement": "AC50", "setting": "HEK293", "result": "31.8 µM (active)"}]}, {"compound": "CCc1cc(=O)oc2c(C)c(OCC(=O)NC3CC(C)(C)NC(C)(C)C3)ccc12", "values": [{"measurement": "EC50", "setting": "[5]", "result": "> 112 µM (not active)"}, {"measurement": "EC50", "setting": "[6]", "result": "> 112 µM (not active)"}, {"measurement": "IC50", "setting": "[7]", "result": "35.9 µM (inactive)"}, {"measurement": "IC50", "setting": "Steroidogenic factor 1", "result": "1.82 µM (active)"}, {"measurement": "IC50", "setting": "[8]", "result": "35.9 µM (inactive)"}]}, {"compound": "Cc1noc(C)c1S(=O)(=O)Nc1ccc2c(c1)CC(=O)N([C@H](C)CO)C[C@@H](C)[C@@H](CN(C)Cc1ccc(Cl)c(Cl)c1)O2", "values": [{"measurement": "AC50", "setting": "[9]", "result": "6.96 µM (active)"}]}, {"compound": "Cc1cc(C)c2sc(N(CCCN(C)C)C(=O)CN3C(=O)c4ccccc4C3=O)nc2c1", "values": [{"measurement": "AC50", "setting": "[10]", "result": "9.02 µM (active)"}]}, {"compound": "CN(C)/C=c1\\sc2c(C#N)cc(C(=O)c3ccc(Br)cc3)n2c1=O", "values": [{"measurement": "EC50", "setting": "[11]", "result": "> 99 µM (inactive)"}, {"measurement": "EC50", "setting": "[12]", "result": "22.3 µM (inactive)"}]}, {"compound": "C[C@@H]1CCCCO[C@@H](CN(C)Cc2ccc(Cl)c(Cl)c2)[C@@H](C)CN([C@H](C)CO)C(=O)c2cc(NS(=O)(=O)c3ccc(Cl)cc3)ccc2O1", "values": [{"measurement": "AC50", "setting": "[9]", "result": "6.5 µM (active)"}]}, {"compound": "Cc1c(C(=O)C2=C(O)C(=O)N(CCN3CCOCC3)C2c2ccccn2)cnn1-c1ccccc1", "note": "(stereo not given)", "values": [{"measurement": "EC50", "setting": "[13]", "result": "1.29 µM (active)"}, {"measurement": "AC50", "setting": "HEK293", "result": "2.31 µM (active)"}]}, {"compound": "COc1ccc(/C=N/NC(=O)c2cccnc2)cc1CSc1nc2ccccc2s1", "values": [{"measurement": "IC50", "setting": "H9c2", "result": "21.2 µM (active)"}]}, {"compound": "CCC1S/C(=C(\\C#N)C(N)=O)N(c2ccc(F)cc2)C1=O", "note": "(stereo not given)", "values": [{"measurement": "IC50", "setting": "[4]", "result": "32.6 µM (not active)"}]}, {"compound": "Cn1c(/C=C/c2ccccc2[N+](=O)[O-])nc2ccccc2c1=O", "values": [{"measurement": "EC50", "setting": "[11]", "result": "> 99 µM (inactive)"}, {"measurement": "EC50", "setting": "[12]", "result": "> 99 µM (inactive)"}]}, {"compound": "COc1cc(C(=O)NCC(=O)N/N=C/c2ccc(-c3cccc([N+](=O)[O-])c3)o2)cc(OC)c1OC", "values": [{"measurement": "IC50", "setting": "H9c2", "result": "10.6 µM (active)"}]}, {"compound": "CCOc1ccc(OCc2cccc(C(=O)N3CCCC3)c2)cc1", "values": [{"measurement": "AC50", "setting": "HEK293", "result": "4.43 µM (active)"}]}, {"compound": "COc1ccccc1Nc1nc2ccc(C)cc2cc1C#N", "values": [{"measurement": "EC50", "setting": "[11]", "result": "> 99 µM (inactive)"}, {"measurement": "EC50", "setting": "[12]", "result": "58.3 µM (inactive)"}]}, {"compound": "C[C@@H]1CN([C@H](C)CO)C(=O)Cc2cc(NC(=O)Nc3ccc(C(F)(F)F)cc3)ccc2O[C@@H]1CN(C)Cc1ccc(C(F)(F)F)cc1", "values": [{"measurement": "AC50", "setting": "[9]", "result": "1.19 µM (active)"}]}, {"compound": "CCc1cc(=O)oc2cc(C)cc(OCC(=O)NC3CC3)c12", "values": [{"measurement": "IC50", "setting": "[7]", "result": "0.292 µM (active)"}, {"measurement": "IC50", "setting": "Steroidogenic factor 1", "result": "0.359 µM (active)"}, {"measurement": "IC50", "setting": "[8]", "result": "35.9 µM (inactive)"}]}]}
